In test [1] the test system is ovarian cancer primary tumor cells. The test can be described thus: Confocal fluorescent microscopy of dyed primary tumor cells, dye combinations and addition sequences (Example 1). The format is cell-based. Here is the method: A 96 round bottom well plate was seeded with a single cell suspension of about 2,500 ovarian cancer primary tumor cells/20 μl/well at day 0. In each well, 80 μl of DMEM/2% alpha serum was added on top to the total volume of 100 μl/well. Dyes were prepared at 2-fold the desired final concentrations on the day of imaging. At day 3, 100 μL of dyeing mix was carefully added to each well to avoid disturbing the cells, to a final 1-fold concentration of dyes. Cells were incubated with dyes at 37° C. For this example, the dyes used were a membrane-permeable fluorescent dye (CYQUANT® GR, Thermo Fisher Scientific, Waltham, Mass.) and a membrane-impermeable fluorescent quenching dye (DRAQ7™, Thermo Fisher Scientific, Waltham, Mass.). The following dye combinations and sequences of dye addition were tested in triplicates, and similar results were seen among the triplicates. FIGS. 1A-1G show exemplary results of the dye combination and addition sequences, as follows.
FIG. 1A is a confocal fluorescent microscopy image of a sample prepared by incubation with the membrane-impermeable fluorescent quenching dye for 30 min followed by addition of the masking agent (Diammonium 5-[(E)-(4-acetamido-2-sulfonatophenyl)diazenyl]-6-amino-4-hydroxy-2-naphthalenesulfonate; CAS Reg. No. 302912-22-7, Thermo Fischer Scientific, Waltham, Mass.) and incubation for an additional 1 h.
FIG. 1B is a confocal fluorescent microscopy image of a sample prepared by incubation with the membrane-impermeable fluorescent quenching dye for 30 min.
FIG. 1C is a confocal fluorescent microscopy image of a sample prepared by incubation with the membrane-impermeable fluorescent quenching dye for 30 min, followed by addition of the membrane-permeable fluorescent dye and incubation for an additional 1 h.
FIG. 1D is a confocal fluorescent microscopy image of a sample prepared by incubation with the membrane-impermeable fluorescent quenching dye for 30 min, followed by addition of the membrane-permeable fluorescent dye and masking reagent and incubation for an additional 1 h.
FIG. 1E is a confocal fluorescent microscopy image of a sample prepared by incubation with the membrane-permeable fluorescent dye alone for 1 h.
FIG. 1F is a confocal fluorescent microscopy image of a sample prepared by incubation with the membrane-permeable fluorescent dye alone for 1 h, followed by addition of the membrane-impermeable fluorescent quenching dye and incubation for an additional 30 min.
FIG. 1G is a confocal fluorescent microscopy image of a sample prepared by incubation with the membrane-permeable fluorescent dye and masking reagent for 1 h, followed by addition of the membrane-impermeable fluorescent quenching dye and incubation for an additional 30 min.

For test [2] the test system is unchanged. Description: Dynamic confocal fluorescent microscopy after adding quenching dye to cells pre-dyed with membrane-permeable dye (Example 2). The format is cell-based. The note with it: for change of fluorescence intensity over time: 0-45 min after addition of quenching dye; for dyeing of the nonviable cells: by 45 min after addition of quenching dye. On the procedure:
In order to further examine the dyeing behavior and kinetics of the membrane-impermeable fluorescent quenching dye and the membrane-permeable fluorescent dye of Example 1 when mixed together, an additional experiment was performed on day 7 of culture as follows.
On day 7, 20 μL of the membrane-permeable fluorescent dye was added at 6× concentration to each well. The cells were incubated with dye at 37° C. for 1 hour. Confocal fluorescent microscopy was performed after incubation. About 20 μL of the membrane-impermeable fluorescent quenching dye was added directly to the same well on the stage at 6× concentration without disturbing the cells.
Dynamic confocal fluorescent microscopy images were taken of the cells immediately after addition of the membrane-impermeable fluorescent quenching dye (FIG. 2A, 2B), as well as at 5 min (FIG. 2C, 2D), 20 min (FIG. 2E, 2F), 30 min (FIG. 2G, 2H) and 45 min (FIG. 2I, 2J) after addition.

[3] abbreviates: FIG. 1D: quenching dye 30 min, then membrane-permeable dye and masking reagent, additional 1 h.
[4] abbreviates: FIG. 1G: membrane-permeable dye and masking reagent 1 h, then quenching dye, additional 30 min.
Setting [5] is: FIG. 1C: quenching dye 30 min, then membrane-permeable dye, additional 1 h.
Where [6] appears, read: FIG. 1F: membrane-permeable dye 1 h, then quenching dye, additional 30 min.

Regarding `CC(=O)Nc1ccc(/N=N/c2c(N)ccc3cc(S(=O)(=O)O)cc(O)c23)c(S(=O)(=O)O)c1.N.N` [masking agent, Diammonium 5-[(E)-(4-acetamido-2-sulfonatophenyl)diazenyl]-6-amino-4-hydroxy-2-naphthalenesulfonate], the “signal observed by confocal fluorescent microscopy” value (from here on “signal observed”) in test [1] (FIG. 1A: quenching dye 30 min, then masking agent, additional 1 h) is given as “no signal was observed”; in test [1] (setting [3]), “No red signal was observed”; in test [1] (setting [4]) it was “No red signal was observed”.

With “CYQUANT® GR [membrane-permeable fluorescent dye]”, the “signal observed” value in test [1] (setting [5]) was “discrete green signals”; in test [1] (setting [3]) it was “discrete green signals were observed”; in test [1] (FIG. 1E: membrane-permeable fluorescent dye alone, 1 h, 37° C.), “discrete green signals were observed”; in test [1] (setting [6]), “discrete green signals”; in test [1] (setting [4]) it was “discrete green signals were observed”. Moreover, in test [1] (dye alone), the “cells dyed by the dye alone” value is “dyed both viable and nonviable cells”. In addition, in test [2], the “change of fluorescence intensity over time” value is listed as “significant decrease over time”. Also, the “dyeing of the nonviable cells” value in test [2] is “negligible”.

On to DRAQ7™, for which the “signal observed” value was “discrete red signals were observed” in test [1] (FIG. 1B: membrane-impermeable fluorescent quenching dye alone, 30 min, 37° C., day 3); “discrete red signals were observed” in test [1] (setting [5]); “discrete red signals were observed” in test [1] (setting [6]). Further, the “change of fluorescence intensity over time” value in test [2] was “increase over time”. Further, the “dyeing of the nonviable cells” value in test [2] was “positive”. Moreover, the “time after addition of the dye at which the brightest images (fluorescence intensity) were acquired” value in test [2] (day 7, FIG. 2I, 2J) was 45 min. In test [2] (day 7, membrane-permeable dye 1 hour at 37° C., then quenching dye added), the “time after addition at which green cells becoming red is visually noticeable” value is 20 to 30 min.

Source of the values: patent publication US10883936B2, “Analysis of viable and nonviable cells” (SageMedic Corporation, priority 2018, dated 2021).
